Laboratory results from patent US20060069132A1, “Azolecarboxamide herbicides” (priority 2004, published 2006).

Assays:
barnyardgrass [1] = test: Test B pre-/postemergence herbicide test; assay type: in vivo, Echinochloa crus-galli; conditions: for Barnyardgrass plant response rating: postemergence
Procedure, shortened: (§1)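 Greenhouse pot assay with simultaneous preemergence (treated seed) and postemergence (2–18 cm seedlings) applications of surfactant-containing, non-phytotoxic solvent formulations. Response scored visually 13–15 days later on a 0–100 scale, 100 meaning complete control.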

Surinam grass = test: Test B pre-/postemergence herbicide test; assay type: in vivo, Urochloa decumbens; conditions: for Surinam Grass plant response rating: postemergence
Procedure, shortened: (§2)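 Formulation: non-phytotoxic solvent mix with surfactant. Timing: preemergence on seed and postemergence on 2–18 cm plants, applied concurrently. Readout after 13–15 d greenhouse: visual 0–100 control rating against controls.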

cocklebur = test: Test B pre-/postemergence herbicide test; assay type: in vivo, Xanthium strumarium; conditions: for Cocklebur plant response rating: postemergence
Procedure, shortened: as §1

corn = test: Test B pre-/postemergence herbicide test; assay type: in vivo, Zea mays; conditions: for Corn plant response rating: postemergence
Procedure, shortened: as §2

large crabgrass = test: Test B pre-/postemergence herbicide test; assay type: in vivo, Digitaria sanguinalis; conditions: for Crabgrass, Large plant response rating: postemergence
Procedure, shortened: as §2

giant foxtail = test: Test B pre-/postemergence herbicide test; assay type: in vivo, Setaria faberi; conditions: for Foxtail, Giant plant response rating: postemergence
Procedure, shortened: as §2

lambsquarters = test: Test B pre-/postemergence herbicide test; assay type: in vivo, Chenopodium album; conditions: for Lambsquarters plant response rating: postemergence
Procedure, shortened: as §2

morningglory = test: Test B pre-/postemergence herbicide test; assay type: in vivo, Ipomoea coccinea; conditions: for Morningglory plant response rating: postemergence
Procedure, shortened: as §1

pigweed = test: Test B pre-/postemergence herbicide test; assay type: in vivo, Amaranthus retroflexus; conditions: for Pigweed plant response rating: postemergence
Procedure, shortened: as §2

velvetleaf = test: Test B pre-/postemergence herbicide test; assay type: in vivo, Abutilon theophrasti; conditions: for Velvetleaf plant response rating: postemergence
Procedure, shortened: as §2

wheat = test: Test B postemergence herbicide test; assay type: in vivo, Triticum aestivum; parameters: key to Wheat plant response rating: 0 = no effect, 100 = complete control; conditions: postemergence
Procedure, shortened: (§3)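 Each value is a visual 0–100 response rating taken against controls 13 to 15 days after treatment in the greenhouse. Plants received formulated chemical postemergence at the 1- to 4-leaf stage or, in flooded paddy, at the 2-leaf stage.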

wild oat = test: Test B postemergence herbicide test; assay type: in vivo, Avena fatua; conditions: postemergence
Procedure, shortened: as §3

rice = test: Test B flooded paddy test; assay type: in vivo, Oryza sativa; conditions: scale 0 to 100 (0 no effect, 100 complete control); for Rice plant response rating: 1000 g ai/ha
Procedure, shortened: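 Scale 0–100: zero equals no visible effect, 100 complete control, judged by eye relative to controls. Timing: 13 to 15 days in greenhouse post-treatment. Growth stage at spraying: two leaves (paddy) or one to four leaves, 2–18 cm (postemergence).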

[2] = tested on: small flower umbrella sedge; test: Test B flooded paddy test; assay type: in vivo, Cyperus difformis; conditions: scale 0 to 100 (0 no effect, 100 complete control); for Sedge, Umbrella plant response rating: 1000 g ai/ha
Procedure, shortened: (§4)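 Greenhouse test; postemergence application to plants at 1–4 leaves (2–18 cm); paddy species at 2 leaves; evaluated visually vs controls at 13–15 days; scale 0–100 (100 = complete control).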

barnyardgrass [3] = test: Test B flooded paddy test; assay type: in vivo, Echinochloa crus-galli; conditions: scale 0 to 100 (0 no effect, 100 complete control); for Barnyardgrass plant response rating: 1000 g ai/ha
Procedure, shortened: as §4

[4] = 125 g ai/ha, 0 = no effect, 100 = complete control, preemergence
[5] = 125 g ai/ha, visual rating, scale 0 (no effect) to 100 (complete control)
[6] = 500 g ai/ha, visual rating, 0 = no effect, 100 = complete control, preemergence
[7] = 500 g ai/ha, scale 0 to 100, 0 is no effect, 100 is complete control
[8] = 125 g ai/ha, 0 is no effect, 100 is complete control, preemergence

## CCN(C)C(=O)c1ccc(F)c(NC(=O)C2CC(C(C)(C)C)=NN2CC)c1 (racemic) [Compound 307]
Barnyardgrass [1]; [4]
  Barnyardgrass plant response rating (0 to 100 scale): 80
Barnyardgrass [1]; [5]
  Barnyardgrass plant response rating: 0
Barnyardgrass [1]; [6]
  Plant response rating, Barnyardgrass: 100
Barnyardgrass [1]; [7]
  Barnyardgrass plant response rating: 10
Surinam grass; [4]
  Surinam Grass plant response rating (0 to 100 scale): 70
Surinam grass; [5]
  Surinam Grass plant response rating: 10
Surinam grass; [6]
  Plant response rating, Surinam Grass: 90
Surinam grass; [7]
  Surinam Grass plant response rating: 30
cocklebur; [4]
  Cocklebur plant response rating (0 to 100 scale): 80
cocklebur; [5]
  Cocklebur plant response rating: 20
cocklebur; [6]
  Plant response rating, Cocklebur: 100
cocklebur; [7]
  Cocklebur plant response rating: 30
corn; [4]
  Corn plant response rating (0 to 100 scale): 70
corn; [6]
  Plant response rating, Corn: 80
corn; [7]
  Corn plant response rating: 10
Large crabgrass; [4]
  Crabgrass, Large plant response rating (0 to 100 scale): 90
Large crabgrass; [5]
  Crabgrass, Large plant response rating: 10
Large crabgrass; [6]
  Plant response rating, Crabgrass, Large: 100
Large crabgrass; [7]
  Crabgrass, Large plant response rating: 30
Giant foxtail; [4]
  Foxtail, Giant plant response rating (0 to 100 scale): 90
Giant foxtail; [5]
  Foxtail, Giant plant response rating: 20
Giant foxtail; [6]
  Plant response rating, Foxtail, Giant: 90
Giant foxtail; [7]
  Foxtail, Giant plant response rating: 30
lambsquarters; [4]
  Lambsquarters plant response rating (0 to 100 scale): 100
lambsquarters; [5]
  Lambsquarters plant response rating: 60
lambsquarters; [6]
  Plant response rating, Lambsquarters: 100
lambsquarters; [7]
  Lambsquarters plant response rating: 80
morningglory; [4]
  Morningglory plant response rating (0 to 100 scale): 0
morningglory; [5]
  Morningglory plant response rating: 0
morningglory; [6]
  Plant response rating, Morningglory: 10
morningglory; [7]
  Morningglory plant response rating: 0
pigweed; [4]
  Pigweed plant response rating (0 to 100 scale): 100
pigweed; [5]
  Pigweed plant response rating: 50
pigweed; [6]
  Plant response rating, Pigweed: 100
pigweed; [7]
  Pigweed plant response rating: 60
velvetleaf; [5]
  Velvetleaf plant response rating: 10
velvetleaf; [6]
  Plant response rating, Velvetleaf: 100
velvetleaf; [7]
  Velvetleaf plant response rating: 60
wheat; [5]
  Wheat plant response rating: 0
wheat; [7]
  Wheat plant response rating: 20
Wild oat; [5]
  Oat, Wild plant response rating: 0
Wild oat; [7]
  Oat, Wild plant response rating: 20
rice
  Rice plant response rating: 90
[2]
  Sedge, Umbrella plant response rating: 90
Barnyardgrass [3]
  Barnyardgrass plant response rating: 90

## CCC1=NN(C(C)(C)C)CC1C(=O)Nc1cc(C(=O)N(C)C)ccc1F (racemic) [Compound 343]
Barnyardgrass [1]; [8]
  Plant response rating (0 to 100 scale), Barnyardgrass: 70
Barnyardgrass [1]; [5]
  Barnyardgrass plant response rating: 10
Barnyardgrass [1]; [6]
  Plant response rating, Barnyardgrass: 100
Barnyardgrass [1]; [7]
  Barnyardgrass plant response rating: 50
Surinam grass; [8]
  Plant response rating (0 to 100 scale), Surinam Grass: 50
Surinam grass; [5]
  Surinam Grass plant response rating: 10
Surinam grass; [6]
  Plant response rating, Surinam Grass: 100
Surinam grass; [7]
  Surinam Grass plant response rating: 40
cocklebur; [5]
  Cocklebur plant response rating: 0
cocklebur; [6]
  Plant response rating, Cocklebur: 90
cocklebur; [7]
  Cocklebur plant response rating: 20
corn; [5]
  Corn plant response rating: 10
corn; [7]
  Corn plant response rating: 30
Large crabgrass; [8]
  Plant response rating (0 to 100 scale), Crabgrass, Large: 40
Large crabgrass; [5]
  Crabgrass, Large plant response rating: 20
Large crabgrass; [6]
  Plant response rating, Crabgrass, Large: 100
Large crabgrass; [7]
  Crabgrass, Large plant response rating: 50
Giant foxtail; [8]
  Plant response rating (0 to 100 scale), Foxtail, Giant: 30
Giant foxtail; [5]
  Foxtail, Giant plant response rating: 30
Giant foxtail; [6]
  Plant response rating, Foxtail, Giant: 100
Giant foxtail; [7]
  Foxtail, Giant plant response rating: 50
lambsquarters; [8]
  Plant response rating (0 to 100 scale), Lambsquarters: 90
lambsquarters; [5]
  Lambsquarters plant response rating: 40
lambsquarters; [6]
  Plant response rating, Lambsquarters: 100
lambsquarters; [7]
  Lambsquarters plant response rating: 100
morningglory; [8]
  Plant response rating (0 to 100 scale), Morningglory: 50
morningglory; [5]
  Morningglory plant response rating: 30
morningglory; [6]
  Plant response rating, Morningglory: 100
morningglory; [7]
  Morningglory plant response rating: 80
pigweed; [8]
  Plant response rating (0 to 100 scale), Pigweed: 90
pigweed; [5]
  Pigweed plant response rating: 40
pigweed; [6]
  Plant response rating, Pigweed: 100
pigweed; [7]
  Pigweed plant response rating: 90
velvetleaf; [8]
  Plant response rating (0 to 100 scale), Velvetleaf: 100
velvetleaf; [5]
  Velvetleaf plant response rating: 20
velvetleaf; [7]
  Velvetleaf plant response rating: 50
wheat; [5]
  Wheat plant response rating: 0
wheat; [7]
  Wheat plant response rating: 0
Wild oat; [5]
  Oat, Wild plant response rating: 10
Wild oat; [7]
  Oat, Wild plant response rating: 10
rice
  Rice plant response rating: 80
[2]
  Sedge, Umbrella plant response rating: 90
Barnyardgrass [3]
  Barnyardgrass plant response rating: 90

## CCNC(=O)c1cccc(NC(=O)c2nc(C(C)(C)C)nn2CC)c1 [Compound 446, 3-(1,1-dimethylethyl)-1-ethyl-N-[3-[(ethylamino)carbonyl]phenyl]-1H-1,2,4-triazole-5-carboxamide]
rice; Oryza sativa, 336 h, 125 g ai/ha, read-out: Rice plant response rating
  plant injury at 125 g/ha: 80%
rice; Oryza sativa, 336 h, 500 g ai/ha, read-out: Rice plant response rating
  plant injury at 500 g/ha: 90%
[2]; Cyperus difformis, 336 h, 125 g ai/ha, read-out: Sedge, Umbrella plant response rating
  pest or weed control at 125 g/ha: 90%
[2]; Cyperus difformis, 336 h, 500 g ai/ha, read-out: Sedge, Umbrella plant response rating
  pest or weed control at 500 g/ha: 90%
Barnyardgrass [3]; Echinochloa crus-galli, 336 h, 125 g ai/ha, read-out: Barnyardgrass plant response rating
  pest or weed control at 125 g/ha: 70%
Barnyardgrass [3]; Echinochloa crus-galli, 336 h, 500 g ai/ha, read-out: Barnyardgrass plant response rating
  pest or weed control at 500 g/ha: 90%
